Test results reported in ChEMBL document CHEMBL3232991, “New polyfunctional imidazo[4,5-C]pyridine motifs: synthesis, crystal studies, docking studies and antimicrobial evaluation” (Eur J Med Chem, 2014).
In brackets after ≈: the same amount, converted by molar mass. Activity calls are given as the source filed them. No cut-off for these calls is given here.

What was measured:
Bacillus cereus [1] = experiment: Antibacterial activity against Bacillus cereus NCIM 2155 assessed as diameter of growth inhibition zone at 500 ug/ml after 20 hrs by agar disc diffusion method; assay type: functional; details: for zone of inhibition at 500 µg/mL: NCIM 2155, 20 h, read-out: DIZ
Bacillus cereus [2] = experiment: Antibacterial activity against Bacillus cereus NCIM 2155 assessed as diameter of growth inhibition zone at 1000 ug/ml after 20 hrs by agar disc diffusion method; assay type: functional; details: for zone of inhibition at 1000 µg/mL: NCIM 2155, 20 h, read-out: DIZ
Staphylococcus aureus [3] = experiment: Antibacterial activity against Staphylococcus aureus MTCC 4102 assessed as diameter of growth inhibition zone at 500 ug/ml after 20 hrs by agar disc diffusion method; assay type: functional
Staphylococcus aureus [4] = experiment: Antibacterial activity against Staphylococcus aureus MTCC 4102 assessed as diameter of growth inhibition zone at 1000 ug/ml after 20 hrs by agar disc diffusion method; assay type: functional
Candida albicans [5] = experiment: Antifungal activity against Candida albicans MTCC 183 assessed as diameter of growth inhibition zone at 500 ug/ml after 4 days by agar disc diffusion method; assay type: functional; details: for zone of inhibition at 500 µg/mL: MTCC 183, 96 h, read-out: DIZ
Candida albicans [6] = experiment: Antifungal activity against Candida albicans MTCC 183 assessed as diameter of growth inhibition zone at 1000 ug/ml after 4 days by agar disc diffusion method; assay type: functional; details: for zone of inhibition at 1000 µg/mL: MTCC 183, 96 h, read-out: DIZ
Saccharomyces cerevisiae [7] = experiment: Antifungal activity against Saccharomyces cerevisiae NCIM 3044 assessed as diameter of growth inhibition zone at 500 ug/ml after 4 days by agar disc diffusion method; assay type: functional; details: for zone of inhibition at 500 µg/mL: NCIM 3044, 96 h, read-out: DIZ
Saccharomyces cerevisiae [8] = experiment: Antifungal activity against Saccharomyces cerevisiae NCIM 3044 assessed as diameter of growth inhibition zone at 1000 ug/ml after 4 days by agar disc diffusion method; assay type: functional; details: for zone of inhibition at 1000 µg/mL: NCIM 3044, 96 h, read-out: DIZ
Escherichia coli [9] = experiment: Antibacterial activity against Escherichia coli NCIM 2931 assessed as diameter of growth inhibition zone at 500 ug/ml after 20 hrs by agar disc diffusion method; assay type: functional; details: for zone of inhibition at 500 µg/mL: NCIM 2931, 20 h, read-out: DIZ
Escherichia coli [10] = experiment: Antibacterial activity against Escherichia coli NCIM 2931 assessed as diameter of growth inhibition zone at 1000 ug/ml after 20 hrs by agar disc diffusion method; assay type: functional; details: for zone of inhibition at 1000 µg/mL: NCIM 2931, 20 h, read-out: DIZ
Pseudomonas aeruginosa [11] = experiment: Antibacterial activity against Pseudomonas aeruginosa MTCC 4727 assessed as diameter of growth inhibition zone at 500 ug/ml after 20 hrs by agar disc diffusion method; assay type: functional; details: for zone of inhibition at 500 µg/mL: MTCC 4727, 20 h, read-out: DIZ
Pseudomonas aeruginosa [12] = experiment: Antibacterial activity against Pseudomonas aeruginosa MTCC 4727 assessed as diameter of growth inhibition zone at 1000 ug/ml after 20 hrs by agar disc diffusion method; assay type: functional; details: for zone of inhibition at 1000 µg/mL: MTCC 4727, 20 h, read-out: DIZ
Bacillus cereus [13] = experiment: Antibacterial activity against Bacillus cereus NCIM 2155 assessed as diameter of growth inhibition zone at 10 ug/ml after 20 hrs by agar disc diffusion method; assay type: functional
Staphylococcus aureus [14] = experiment: Antibacterial activity against Staphylococcus aureus MTCC 4102 assessed as diameter of growth inhibition zone at 10 ug/ml after 20 hrs by agar disc diffusion method; assay type: functional
Candida albicans [15] = experiment: Antifungal activity against Candida albicans MTCC 183 assessed as diameter of growth inhibition zone at 10 ug/ml after 4 days by agar disc diffusion method; assay type: functional
Saccharomyces cerevisiae [16] = experiment: Antifungal activity against Saccharomyces cerevisiae NCIM 3044 assessed as diameter of growth inhibition zone at 10 ug/ml after 4 days by agar disc diffusion method; assay type: functional
Escherichia coli [17] = experiment: Antibacterial activity against Escherichia coli NCIM 2931 assessed as diameter of growth inhibition zone at 10 ug/ml after 20 hrs by agar disc diffusion method; assay type: functional
Pseudomonas aeruginosa [18] = experiment: Antibacterial activity against Pseudomonas aeruginosa MTCC 4727 assessed as diameter of growth inhibition zone at 10 ug/ml after 20 hrs by agar disc diffusion method; assay type: functional
Candida albicans [19] = experiment: Antifungal activity against Candida albicans MTCC 183 assessed as assessed as growth inhibition after 48 hrs by broth microdilution method; assay type: functional, organism-based; details: MTCC 183, 48 h
Saccharomyces cerevisiae [20] = experiment: Antifungal activity against Saccharomyces cerevisiae NCIM 3044 assessed as growth inhibition after 48 hrs by broth microdilution method; assay type: functional, organism-based; details: NCIM 3044, 48 h
Escherichia coli [21] = experiment: Antibacterial activity against Escherichia coli NCIM 2931 assessed as growth inhibition after 24 hrs by broth microdilution method; assay type: functional, organism-based; details: NCIM 2931, 24 h

Row | SMILES | diameter of the inhibition zone (DIZ) (Bacillus cereus [1]) | diameter of the inhibition zone (DIZ) (Bacillus cereus [2]) | diameter of the inhibition zone (DIZ) (Staphylococcus aureus [3]) | diameter of the inhibition zone (DIZ) (Staphylococcus aureus [4]) | diameter of the inhibition zone (DIZ) (Candida albicans [5]) | diameter of the inhibition zone (DIZ) (Candida albicans [6]) | diameter of the inhibition zone (DIZ) (Saccharomyces cerevisiae [7]) | diameter of the inhibition zone (DIZ) (Saccharomyces cerevisiae [8]) | diameter of the inhibition zone (DIZ) (Escherichia coli [9]) | diameter of the inhibition zone (DIZ) (Escherichia coli [10]) | diameter of the inhibition zone (DIZ) (Pseudomonas aeruginosa [11]) | diameter of the inhibition zone (DIZ) (Pseudomonas aeruginosa [12]) | further results
1 | CC(C)(C)Cc1nc2c(N3CCCC(C#N)C3)ncc(-c3cccc(F)c3)c2[nH]1 (centres undefined) | inactive | inactive | inactive | inactive | inactive | inactive | inactive | inactive | inactive | inactive | inactive | inactive | –
2 | N#CC1CCCN(c2ncc(-c3cccc(F)c3)c3[nH]c(C4CCCCC4)nc23)C1 (centres undefined) | inactive | inactive | inactive | inactive | inactive | inactive | inactive | inactive | – | – | inactive | inactive | zone of inhibition at 500 µg/mL (Escherichia coli [9]): 6 mm; zone of inhibition at 1000 µg/mL (Escherichia coli [10]): 12.5 mm
3 | OC(Cn1cncn1)(Cn1cncn1)c1ccc(F)cc1F [FLUCONAZOLE] | – | – | – | – | – | – | – | – | – | – | – | – | diameter of the inhibition zone (DIZ) (Bacillus cereus [13]): inactive; diameter of the inhibition zone (DIZ) (Staphylococcus aureus [14]): inactive; zone of inhibition at 10 µg/mL (Candida albicans [15]; MTCC 183, 96 h, read-out: DIZ): 25 mm; zone of inhibition at 10 µg/mL (Saccharomyces cerevisiae [16]; NCIM 3044, 96 h, read-out: DIZ): 24 mm; diameter of the inhibition zone (DIZ) (Escherichia coli [17]): inactive; diameter of the inhibition zone (DIZ) (Pseudomonas aeruginosa [18]): inactive
4 | N#CC1CCCN(c2ncc(-c3cccc(F)c3)c3[nH]c(CCc4ccccc4)nc23)C1 (centres undefined) | – | – | inactive | inactive | inactive | inactive | inactive | inactive | inactive | inactive | inactive | inactive | zone of inhibition at 500 µg/mL (Bacillus cereus [1]): 6.7 mm; zone of inhibition at 1000 µg/mL (Bacillus cereus [2]): 13 mm
5 | Cc1cccc(Cc2nc3c(N4CCCC(C#N)C4)ncc(-c4cccc(F)c4)c3[nH]2)c1 (centres undefined) | inactive | inactive | inactive | inactive | – | – | inactive | inactive | inactive | inactive | – | – | zone of inhibition at 500 µg/mL (Candida albicans [5]): 6.8 mm; zone of inhibition at 1000 µg/mL (Candida albicans [6]): 15 mm; IC50 (Candida albicans [19]): 206 µg/mL (≈ 485 µM); MIC (Candida albicans [19]): 404 µg/mL (≈ 950 µM); zone of inhibition at 500 µg/mL (Pseudomonas aeruginosa [11]): 6.2 mm; zone of inhibition at 1000 µg/mL (Pseudomonas aeruginosa [12]): 13 mm
6 | N#CC1CCCN(c2ncc(-c3cccc(F)c3)c3[nH]c(-c4ccco4)nc23)C1 (centres undefined) | inactive | inactive | inactive | inactive | inactive | inactive | – | – | – | – | inactive | inactive | zone of inhibition at 500 µg/mL (Saccharomyces cerevisiae [7]): 6.9 mm; zone of inhibition at 1000 µg/mL (Saccharomyces cerevisiae [8]): 15 mm; IC50 (Saccharomyces cerevisiae [20]): 98.8 µg/mL (≈ 255 µM); MIC (Saccharomyces cerevisiae [20]): 296 µg/mL (≈ 765 µM); IC50 (Escherichia coli [21]): 74.5 µg/mL (≈ 192 µM); MIC (Escherichia coli [21]): 198 µg/mL (≈ 510 µM); zone of inhibition at 500 µg/mL (Escherichia coli [9]): 8 mm; zone of inhibition at 1000 µg/mL (Escherichia coli [10]): 16 mm
7 | N#CC1CCCN(c2ncc(-c3cccc(F)c3)c3[nH]c(COc4ccccc4)nc23)C1 (centres undefined) | – | – | inactive | inactive | inactive | inactive | – | – | inactive | inactive | inactive | inactive | zone of inhibition at 500 µg/mL (Bacillus cereus [1]): 2.8 mm; zone of inhibition at 1000 µg/mL (Bacillus cereus [2]): 6 mm; zone of inhibition at 500 µg/mL (Saccharomyces cerevisiae [7]): 8.7 mm; zone of inhibition at 1000 µg/mL (Saccharomyces cerevisiae [8]): 19 mm; IC50 (Saccharomyces cerevisiae [20]): 192 µg/mL (≈ 449 µM); MIC (Saccharomyces cerevisiae [20]): 384 µg/mL (≈ 898 µM)
8 | CCC(CC)c1nc2c(N3CCCC(C#N)C3)ncc(-c3cccc(F)c3)c2[nH]1 (centres undefined) | inactive | inactive | inactive | inactive | inactive | inactive | inactive | inactive | inactive | inactive | inactive | inactive | –
9 | Cn1cc(-c2cnc(N3CCC(C#N)CC3)c3nc(Cc4ccc(Cl)cc4Cl)[nH]c23)cn1 | inactive | inactive | inactive | inactive | inactive | inactive | inactive | inactive | inactive | inactive | inactive | inactive | –
10 | N#CC1CCCN(c2ncc(-c3cccc(F)c3)c3[nH]c(Cc4cc(F)ccc4F)nc23)C1 (centres undefined) | inactive | inactive | inactive | inactive | inactive | inactive | inactive | inactive | inactive | inactive | inactive | inactive | –
11 | Cn1cc(-c2cnc(N3CCC(C#N)CC3)c3nc(CCc4ccccc4)[nH]c23)cn1 | inactive | inactive | – | – | – | – | inactive | inactive | – | – | inactive | inactive | zone of inhibition at 500 µg/mL (Staphylococcus aureus [3]; MTCC 4102, 20 h, read-out: DIZ): 4.2 mm; zone of inhibition at 1000 µg/mL (Staphylococcus aureus [4]; MTCC 4102, 20 h, read-out: DIZ): 10 mm; zone of inhibition at 500 µg/mL (Candida albicans [5]): 12.3 mm; zone of inhibition at 1000 µg/mL (Candida albicans [6]): 22 mm; IC50 (Candida albicans [19]): 73.7 µg/mL (≈ 179 µM); MIC (Candida albicans [19]): 195 µg/mL (≈ 475 µM); zone of inhibition at 500 µg/mL (Escherichia coli [9]): 5.4 mm; zone of inhibition at 1000 µg/mL (Escherichia coli [10]): 12 mm
12 | N#CC1CCCN(c2ncc(-c3cccc(F)c3)c3[nH]c(CSc4ccccc4)nc23)C1 (centres undefined) | inactive | inactive | inactive | inactive | inactive | inactive | inactive | inactive | inactive | inactive | – | – | zone of inhibition at 500 µg/mL (Pseudomonas aeruginosa [11]): 5.2 mm; zone of inhibition at 1000 µg/mL (Pseudomonas aeruginosa [12]): 11 mm
13 | CN[C@@H]1[C@H](O[C@H]2[C@H](O[C@H]3[C@H](O)[C@@H](O)[C@H](N=C(N)N)[C@@H](O)[C@@H]3N=C(N)N)O[C@@H](C)[C@]2(O)C=O)O[C@@H](CO)[C@H](O)[C@H]1O [STREPTOMYCIN] | – | – | – | – | – | – | – | – | – | – | – | – | zone of inhibition at 10 µg/mL (Bacillus cereus [13]; NCIM 2155, 20 h, read-out: DIZ): 20.2 mm; zone of inhibition at 10 µg/mL (Staphylococcus aureus [14]; MTCC 4102, 20 h, read-out: DIZ): 23.8 mm; diameter of the inhibition zone (DIZ) (Candida albicans [15]): inactive; diameter of the inhibition zone (DIZ) (Saccharomyces cerevisiae [16]): inactive; zone of inhibition at 10 µg/mL (Escherichia coli [17]; NCIM 2931, 20 h, read-out: DIZ): 21.4 mm; zone of inhibition at 10 µg/mL (Pseudomonas aeruginosa [18]; MTCC 4727, 20 h, read-out: DIZ): 20.9 mm
